Experimental data published in paper PMC6017214, “Rational Design of a New Class of Toll-Like Receptor 4 (TLR4) Tryptamine Related Agonists by Means of the Structure- and Ligand-Based Virtual Screening for Vaccine Adjuvant Discovery” (Molecules : A Journal of Synthetic Chemistry and Natural …, 2018).

What was measured:
[1] = test system: CHO-K1 (Chinese hamster ovary); test: MTT cytotoxicity assay; format: cell-based; details: Cricetulus griseus, CHO-K1 cells, 24 h exposure, mean of 2–3 independent measurements, read-out: IC50 and SEM
Protocol: The toxicity was estimated on the cell cultures in order to exclude the most toxic motifs from further development and to test whether the compounds might be used in the functional cell-model of TLR4. Standard MTT assay (Sigma Aldrich, Damrstadt, Germany) was applied according to the manufacturer’s protocol on the CHO-K1 (Chinese hamster ovary, ECACC, Salisbury, UK).
The IC50 values were calculated from the control-subtracted triplicates using non-linear regression (four parameters) of GraphPad Prism 5 software (GraphPad Software, La Jolla, CA, USA). Final IC50 and SEM value was obtained as a mean of 2–3 independent measurements (see Table 3).
Standard MTT assay (Sigma Aldrich, Darmstadt, Germany) was applied according to the manufacturer’s protocol on the CHO-K1 (Chinese hamster ovary, ECACC, Salisbury, UK) in order to compare the effect of different compound within the series. The cells were cultured according to ECACC recommended conditions and seeded in a density of 8000 per well. […] Cells were exposed to the tested compounds for 24 h. Then the medium was replaced by a medium containing 10 μM of MTT and cells were allowed to produce formazan for another approximately 3 h under surveillance. Thereafter, medium with MTT was sucked out and crystals of formazan were dissolved in DMSO (100 µL). Cell viability was assessed spectrophotometrically by the amount of formazan produced. Absorbance was measured at 570 nm with 650 nm reference wavelength on Synergy HT (BioTek, Winooski, VT, USA). IC50 was then calculated from the control—subtracted triplicates using non-linear regression (four parameters) of GraphPad Prism 5 software (GraphPad Software, La Jolla, CA, USA). Final IC50 and SEM value was obtained as a mean of 2–3 independent measurements.

[2] = Stability of the solid compounds (observation); format: physicochemical; details: solid state
hTLR4/MD2 receptor = target: T1, hTLR4/MD2 receptor (Homo sapiens, UniProt O00206+Q9Y6Y9); test: In vitro hTLR4/MD2 activity assessment in HEK-Blue-hTLR4 reporter cells (SEAP); format: cell-based; details: 10 µM, 16 h, relative to MPLA at same concentration, n = 3
T1 construct: host or cells: HEK-Blue-hTLR4 cells
Protocol: Aliquots of 20 µL of each compound was added into the well containing 25000 HEK-Blue™-hTLR4 cells (Invivogen, Toulouse, France) and the final concentration of compound in each well was 10 µM. Each concentration was evaluated in triplicate. Synthetic MPLAs (Invivogen) of the same concentration was used as positive control, apyrogenous saline F1 (BBraun, Prague, Czech Republic) was used as negative control. Plates were incubated overnight for 16 h at 37 °C 5% CO2. After the incubation 20 μL aliquots of supernatant were collected and mixed with 200 μL of SEAP detection media (QuantiBlue™, Invivogen) and incubated for 2 h at 37 °C 5% CO2. Absorbance of the solution was measured at 630 nm and activity of each compound expressed as a percentage of an activity of the MPLA of respective concentration was determined (n = 3).

[3] = target: T2, Recombinant hTRL4/MD2 complex (Homo sapiens, UniProt O00206+Q9Y6Y9); test: Surface plasmon resonance direct binding (Biacore T200)
T2 construct: purchased R&D Systems
Protocol: To shed light on the prediction capabilities of vHTPS, direct binding of the best compound from the in vitro study (17) to the hTRL4/MD2 complex was investigated through Biospecific Interaction Analysis using the SPR-based biosensor Biacore T200 (GE Healthcare, Little Chalfont, UK).
Compound 17 was further analyzed using a series of concentrations from 6.25 up to 200 μM (binary dilution).
Surface plasmon resonance (SPR) experiments methodology was adapted from experiments by Svajger et al.. The experiments were performed using a Biacore T200 (GE Healthcare, Little Chalfont, UK) instrument equipped with a Series S—CM5 sensor chip (GE Healthcare). Dulbecco’s PBS supplied with 0.05% tween 20 and DMSO was used for immobilization of the protein. Recombinant human hTLR4/MD2 (R&D Systems, Minneapolis, MN, USA) was attached to the surface of the chip by amine coupling. The surface of flow cells 1 and 2 was initially activated with a 10-min pulse of a 1:1 mixture of 0.4 M 1-ethyl-3-(3-dimethylaminopropyl)-carbodiimide hydrochloride and 0.1 M N-hydroxysuccinimide, according to manufacturer recommendations. TLR4 was diluted into 10 mM sodium acetate buffer, pH 5.5, to a final concentration of 200 μg/mL, and injected twice for 600 s over the second flow cell. Both flow cells were blocked with a 10-min pulse of 1.0 M ethanolamine pH 8.5. The final capacity level was about 8000 RU. Analysis was performad in the running buffer consisting of Dulbecco’s PBS (10 mM Na2HPO4, 2 mM KH2PO4, 137 mM NaCl, 2 mM KCl, pH 7.4) supplemented with 1% DMSO (Sigma Aldrich, Darmstadt, Germany) and […]. All of the three hits from the cell-based assays were tested at two different concentrations: 20 μM and 200 μM. Each compound was injected for 1 min at a flow-rate of 30 μL/min, and the dissociation was monitored for 30 s. Regeneration was not needed, although 30 s of buffer-flow was used to stabilize the surface after each injection. […] We used the following concentrations for titration: 0, 6.25, 12.5, 25, 50, 100 and 200 μM.

[4] = test system: human Periferal blood mononuclear cells (PBMCs); test: Ex vivo stimulation of IL-6 production (ELISA); format: cell-based; details: 24 h; for ability to elicit IL-6 production (in words): 10 µM; for c (IL-6 production): 10 µM of each compound (MPLA 10 μM, LPS-RS 100 ng/mL), ELISA, dash = no IL-6 production found
Excerpt: Important factor in adjuvants development is wheter the compounds are capable to elicit immune response not only on reporter cells but on real immunocompetent cels. We have chosen ex vivo study on human Periferal blood mononuclear cells (PBMCs) to evaluate the ability to produce an interleukin 6 (IL-6). […] We have collected the blood samples from healthy donors. From those blood samples we had harvested PBMCs by standard protocol using Histopaque 1077 density gradient. PBMC specimens were frozen and kept in liquid nitrogen. The cells were incubated for 24 h with 10 µM (10% of lowest cytotoxic IC50—see the Section 2.5 and Section 2.6) of each compound and the ability to elicit IL-6 production was assessed. Synthetic MPLA (MPLAs) in equimolar concentration (10 μM) was used as a positive control and LPS from Rhodobacter sphaeroides 100 ng/mL (LPS-RS) as a negative control. IL-6 production was quantified by ELISA commercial kit (Sigma Aldrich) and results were interpreted by GraphPad Prism using Nonlinear Fit of RIA data function. […] Effect on other pro-inflamatory cytokines (e.g., IL-1) was not determined in this study and will be subject of ongoing study in order to explain discrepancy among in silico, in vitro and ex vivo findings. Furthermore study evaluating the influence of compounds on Th1/Th2/Th17 bias will be needed to thoroughly assess their adjuvant and immunomodulating potential. Nevertheless, despite such necesarry and laborious tasks novel TLR4 agonists and potential vaccine adjuvants have been found.
PBMCs was obtained by standard protocol using Histopaque 1077 gradient from whole blood of healthy donors. Cells were seeded at 25,000 cells per well and incubated for 24 h with final concentration 10 µM of each compound in triplicate (n = 3). After 24 h 100 µL of supernatant was collected from each well and level of IL-6 was determined by human IL-6 ELISA kit obtained from Sigma Aldrich (Darmstadt, Germany). Absorbance was measured at 450 nm wavelength on Synergy HT (BioTek). Level of IL-6 was calculated from standard curve using RIA nonlinear plot in Graph Pad Prism 6.

T2 sequence (O00206 24-631 limits assumed): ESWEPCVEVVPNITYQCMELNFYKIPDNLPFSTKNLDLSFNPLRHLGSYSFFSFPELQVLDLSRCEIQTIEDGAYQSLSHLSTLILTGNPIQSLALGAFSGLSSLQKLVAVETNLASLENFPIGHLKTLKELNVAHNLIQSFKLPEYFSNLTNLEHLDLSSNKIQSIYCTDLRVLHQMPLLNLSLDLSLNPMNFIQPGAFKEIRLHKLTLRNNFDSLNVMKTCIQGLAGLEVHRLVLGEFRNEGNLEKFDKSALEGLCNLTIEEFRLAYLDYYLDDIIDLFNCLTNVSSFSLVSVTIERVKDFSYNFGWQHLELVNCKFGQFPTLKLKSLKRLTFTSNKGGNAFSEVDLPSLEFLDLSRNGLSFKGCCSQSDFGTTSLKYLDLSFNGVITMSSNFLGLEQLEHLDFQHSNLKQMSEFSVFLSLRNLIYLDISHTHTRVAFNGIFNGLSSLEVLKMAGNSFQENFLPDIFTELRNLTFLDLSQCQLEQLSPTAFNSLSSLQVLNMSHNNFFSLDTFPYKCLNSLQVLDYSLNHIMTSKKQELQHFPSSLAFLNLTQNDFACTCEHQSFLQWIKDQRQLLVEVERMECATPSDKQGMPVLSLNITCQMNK
T2 sequence (Q9Y6Y9 17-160 limits assumed): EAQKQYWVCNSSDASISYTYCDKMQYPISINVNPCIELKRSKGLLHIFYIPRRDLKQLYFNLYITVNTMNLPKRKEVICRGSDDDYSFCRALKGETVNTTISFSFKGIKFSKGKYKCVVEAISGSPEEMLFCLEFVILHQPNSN
T1 sequence (O00206 24-839): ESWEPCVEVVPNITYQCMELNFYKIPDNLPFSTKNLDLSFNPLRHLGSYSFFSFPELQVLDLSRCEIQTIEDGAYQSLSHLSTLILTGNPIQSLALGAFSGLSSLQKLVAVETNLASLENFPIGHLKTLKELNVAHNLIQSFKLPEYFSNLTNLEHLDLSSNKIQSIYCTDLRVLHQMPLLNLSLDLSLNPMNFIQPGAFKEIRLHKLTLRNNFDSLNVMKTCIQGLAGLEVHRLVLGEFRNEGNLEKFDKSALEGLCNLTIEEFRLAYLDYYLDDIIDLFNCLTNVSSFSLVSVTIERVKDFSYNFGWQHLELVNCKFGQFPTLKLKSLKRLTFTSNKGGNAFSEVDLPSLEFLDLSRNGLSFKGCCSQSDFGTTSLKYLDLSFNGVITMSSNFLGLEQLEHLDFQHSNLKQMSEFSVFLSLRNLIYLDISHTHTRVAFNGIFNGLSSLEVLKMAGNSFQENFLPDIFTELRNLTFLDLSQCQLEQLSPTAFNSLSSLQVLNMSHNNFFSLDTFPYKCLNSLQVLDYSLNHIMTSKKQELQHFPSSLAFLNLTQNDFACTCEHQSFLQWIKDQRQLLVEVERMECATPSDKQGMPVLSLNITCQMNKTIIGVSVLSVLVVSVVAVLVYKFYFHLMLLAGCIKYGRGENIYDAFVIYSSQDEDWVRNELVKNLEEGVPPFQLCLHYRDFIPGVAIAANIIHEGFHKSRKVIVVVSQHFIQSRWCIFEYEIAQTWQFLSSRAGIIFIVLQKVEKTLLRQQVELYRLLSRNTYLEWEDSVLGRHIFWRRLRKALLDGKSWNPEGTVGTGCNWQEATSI
T1 sequence (Q9Y6Y9 17-160 limits assumed): as the sequence (Q9Y6Y9 17-160 limits assumed) above

Row | Molecule | IC50 [1] [µM] | melting point [°C] | also measured
1 | O=C(NCCc1c[nH]c2ccccc12)c1ccc2c(c1)CCCC2 [Compound 23, N-(2-(1H-Indol-3-yl)ethyl)-5,6,7,8-tetrahydronaphthalene-2-carboxamide] | 98 ± 6 | 137 to 139 | –
2 | O=C(NCCc1c[nH]c2ccccc12)c1ccc(Cl)c(Cl)c1 [Compound 18, N-(2-(1H-Indol-3-yl)ethyl)-3,4-dichlorobenzamide] | 892 ± 122 | 112.4 to 113.9 | –
3 | O=C(NCCc1c[nH]c2ccccc12)c1cccc2ccccc12 [Compound 21, N-(2-(1H-Indol-3-yl)ethyl)-1-naphthamide] | – | 164.5 to 166.5 | –
4 | O=C(NCCc1c[nH]c2ccccc12)c1ccc2ccccc2c1 [Compound 19, N-(2-(1H-Indol-3-yl)ethyl)-2-naphthamide] | 155 ± 12 | 193.2 to 195 | –
5 | CC(C)CCC(=O)NCCc1c[nH]c2ccccc12 [Compound 25, N-(2-(1H-Indol-3-yl)ethyl)-4-methylpentanamide] | 348 ± 35 | 45.1 to 47.1 | stability of the compound (in words) [2]: unwanted degradations from crystals to amorphous state
6 | O=C(NCCc1c[nH]c2ccccc12)C1CCCCCC1 [Compound 24, N-(2-(1H-Indol-3-yl)ethyl)cycloheptanecarboxamide] | 170 ± 10 | 88.4 to 90.4 | stability of the compound (in words) [2]: unwanted degradations from crystals to amorphous state
7 | O=C(NCCc1c[nH]c2ccccc12)c1ccc(Cl)cc1 [Compound 17, N-(2-(1H-Indol-3-yl)ethyl)-4-chlorobenzamide] | 201 ± 8 | – | activity of MPLA (hTLR4/MD2 agonist activity normalized to MPLA) (hTLR4/MD2 receptor): more than 20%; dissociation (SPR, in words) ([3]; 6.25 up to 200 μM): rapid dissociation rates; Kd ([3]; SPR, immobilized hTRL4/MD2, 6.25 up to 200 μM): 747 nM; direct binding to the hTRL4/MD2 complex (SPR, in words) ([3]; immobilized recombinant hTRL4/MD2): direct binding to the hTRL4/MD2 complex was confirmed; ability to elicit IL-6 production (in words) [4]: did not shown any effect
8 | O=C(NCCc1c[nH]c2ccccc12)C1CCCCC1 [Compound 20, N-(2-(1H-Indol-3-yl)ethyl)cyclohexanecarboxamide] | 211 ± 43 | 104.8 to 106.3 | –
9 | COc1ccc(C(=O)NCCc2c[nH]c3ccccc23)cc1 [Compound 16, N-(2-(1H-Indol-3-yl)ethyl)-4-methoxybenzamide] | 200 ± 7 | 132.8 to 134.3 | –
10 | Monophosphoryl lipid A [MPLA, reference compound] | – | – | c (IL-6 production) [4]: 3078.97 pg/mL
11 | O=C(NCCc1c[nH]c2ccccc12)c1ccccc1 [Compound 14, N-(2-(1H-Indol-3-yl)ethyl)benzamide] | 297 ± 17 | – | ability to elicit IL-6 production (in words) [4]: significantly induce production of IL-6; c (IL-6 production) [4]: 53.501 pg/mL
12 | Cc1ccc(C(=O)NCCc2c[nH]c3ccccc23)cc1 [Compound 15, N-(2-(1H-Indol-3-yl)ethyl)-4-methylbenzamide] | 197 ± 41 | – | –
13 | O=C(NCCc1c[nH]c2ccccc12)C1CCc2ccccc2C1 (stereo not drawn) [Compound 22, N-(2-(1H-Indol-3-yl)ethyl)-1,2,3,4-tetrahydronaphthalene-2-carboxamide] | 128 ± 8 | 123.2 to 125.2 | activity of MPLA (hTLR4/MD2 agonist activity normalized to MPLA) (hTLR4/MD2 receptor): ~10%; ability to elicit IL-6 production (in words) [4]: significantly induce production of IL-6; c (IL-6 production) [4]: 147.64 pg/mL
